Experimental data taken from ChEMBL document CHEMBL5543113, “Amphiphilic α-Peptoid-deoxynojirimycin Conjugate-based Multivalent Glycosidase Inhibitor for Hypoglycemic Effect and Fluorescence Imaging” (J Med Chem, 2024).

Tested on: Mus musculus
Test: Hypoglycemic activity in C57BL/6J mouse assessed as reduction in PBG level measured per DNJ unit at 0.8 mg/kg, po co-administered with maltose and measured at 15 to 30 mins by glucometer relative to control
Type: functional
Design: scale not given: the % may be the effect or the level left
Settings: time 15-30 min

Structure (SMILES): CCCCCCCCCCCCCCCCCCNC(=O)CN(Cc1cn(CCCCCCN2C[C@H](O)[C@@H](O)[C@H](O)[C@H]2CO)nn1)C(=O)CN(Cc1cn(CCCCCCN2C[C@H](O)[C@@H](O)[C@H](O)[C@H]2CO)nn1)C(=O)CN(Cc1cn(CCCCCCN2C[C@H](O)[C@@H](O)[C@H](O)[C@H]2CO)nn1)C(=O)CN(Cc1cn(CCCCCCN2C[C@H](O)[C@@H](O)[C@H](O)[C@H]2CO)nn1)C(C)=O
- Activity: 14.2%
